Measured values from the kinase profiling compilation of Christmann-Franck et al. (2016).

Legend:
Test in all cases: KINOMEscan competition binding
FGFR1 (human) = FGFR1 (human) (UniProt P11362)
MAP3K7 (human) = MAP3K7 (human) (UniProt O43318)
EPHA6 (human) = EPHA6 (human) (UniProt Q9UF33)
BMP2K (human) = BMP2K (human) (UniProt Q9NSY1)
[1] = molecular target: EIF2AK4 KD2 (human), Q9P2K8 [S808G]
MAPK14 (human) = MAPK14 (human) (UniProt Q16539)
ADCK4 (human) = ADCK4 (human) (UniProt Q96D53)
IRAK3 (human) = IRAK3 (human) (UniProt Q9Y616)
MAPK12 (human) = MAPK12 (human) (UniProt P53778)
Sequence of MAPK12 (human) (P53778 whole entry, looked up): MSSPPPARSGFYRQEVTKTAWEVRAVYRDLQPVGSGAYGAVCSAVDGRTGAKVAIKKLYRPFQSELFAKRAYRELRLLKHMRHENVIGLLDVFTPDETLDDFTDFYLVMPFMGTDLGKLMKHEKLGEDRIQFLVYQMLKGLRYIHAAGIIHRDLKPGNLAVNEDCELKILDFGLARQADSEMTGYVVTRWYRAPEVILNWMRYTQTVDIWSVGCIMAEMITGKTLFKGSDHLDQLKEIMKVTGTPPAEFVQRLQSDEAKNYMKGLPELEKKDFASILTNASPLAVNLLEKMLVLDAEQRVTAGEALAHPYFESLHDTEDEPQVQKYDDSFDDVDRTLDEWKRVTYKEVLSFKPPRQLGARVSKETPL

RIPK1 (human) = RIPK1 (human) (UniProt Q13546)
MAPK11 (human) = MAPK11 (human) (UniProt Q15759)
SIK2 (human) = SIK2 (human) (UniProt Q9H0K1)
FRK (human) = FRK (human) (UniProt P42685)
[2] = molecular target: MET (human), P08581 [Y1235D]
RPS6KA5 KD1 (human) = RPS6KA5 KD1 (human) (UniProt O75582)
Sequence of RPS6KA5 KD1 (human) (O75582 whole entry, looked up): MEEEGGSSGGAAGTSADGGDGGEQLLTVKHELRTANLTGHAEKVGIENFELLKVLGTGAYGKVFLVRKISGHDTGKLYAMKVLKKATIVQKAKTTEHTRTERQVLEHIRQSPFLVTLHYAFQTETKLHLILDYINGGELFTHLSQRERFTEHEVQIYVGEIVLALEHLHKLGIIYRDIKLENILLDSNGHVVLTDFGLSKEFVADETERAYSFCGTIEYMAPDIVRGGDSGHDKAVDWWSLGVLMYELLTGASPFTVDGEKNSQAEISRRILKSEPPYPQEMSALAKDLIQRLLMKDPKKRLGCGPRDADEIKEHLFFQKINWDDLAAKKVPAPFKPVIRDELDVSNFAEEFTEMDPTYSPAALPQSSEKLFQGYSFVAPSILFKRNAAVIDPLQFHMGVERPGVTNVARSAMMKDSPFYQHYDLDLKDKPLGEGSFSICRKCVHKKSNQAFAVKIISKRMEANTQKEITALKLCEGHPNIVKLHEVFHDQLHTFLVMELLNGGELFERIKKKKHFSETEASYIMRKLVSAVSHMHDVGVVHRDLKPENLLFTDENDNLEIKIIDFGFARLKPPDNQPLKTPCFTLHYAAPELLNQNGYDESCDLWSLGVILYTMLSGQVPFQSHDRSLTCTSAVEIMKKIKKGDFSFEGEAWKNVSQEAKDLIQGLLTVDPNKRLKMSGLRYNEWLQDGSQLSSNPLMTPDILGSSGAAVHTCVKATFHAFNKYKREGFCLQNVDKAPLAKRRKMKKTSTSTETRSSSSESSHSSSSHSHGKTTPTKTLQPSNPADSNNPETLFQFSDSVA

CSNK1D (human) = CSNK1D (human) (UniProt P48730)
RIPK4 (human) = RIPK4 (human) (UniProt P57078)
CSNK1G1 (human) = CSNK1G1 (human) (UniProt Q9HCP0)
TXK (human) = TXK (human) (UniProt P42681)
PRKCD (human) = PRKCD (human) (UniProt Q05655)
[3] = molecular target: FLT3 (human), P36888 [D835H]
CDK17 (human) = CDK17 (human) (UniProt Q00537)
RPS6KA6 KD2 (human) = RPS6KA6 KD2 (human) (UniProt Q9UK32)
PRKD1 (human) = PRKD1 (human) (UniProt Q15139)
Sequence of PRKD1 (human) (Q15139 whole entry, looked up): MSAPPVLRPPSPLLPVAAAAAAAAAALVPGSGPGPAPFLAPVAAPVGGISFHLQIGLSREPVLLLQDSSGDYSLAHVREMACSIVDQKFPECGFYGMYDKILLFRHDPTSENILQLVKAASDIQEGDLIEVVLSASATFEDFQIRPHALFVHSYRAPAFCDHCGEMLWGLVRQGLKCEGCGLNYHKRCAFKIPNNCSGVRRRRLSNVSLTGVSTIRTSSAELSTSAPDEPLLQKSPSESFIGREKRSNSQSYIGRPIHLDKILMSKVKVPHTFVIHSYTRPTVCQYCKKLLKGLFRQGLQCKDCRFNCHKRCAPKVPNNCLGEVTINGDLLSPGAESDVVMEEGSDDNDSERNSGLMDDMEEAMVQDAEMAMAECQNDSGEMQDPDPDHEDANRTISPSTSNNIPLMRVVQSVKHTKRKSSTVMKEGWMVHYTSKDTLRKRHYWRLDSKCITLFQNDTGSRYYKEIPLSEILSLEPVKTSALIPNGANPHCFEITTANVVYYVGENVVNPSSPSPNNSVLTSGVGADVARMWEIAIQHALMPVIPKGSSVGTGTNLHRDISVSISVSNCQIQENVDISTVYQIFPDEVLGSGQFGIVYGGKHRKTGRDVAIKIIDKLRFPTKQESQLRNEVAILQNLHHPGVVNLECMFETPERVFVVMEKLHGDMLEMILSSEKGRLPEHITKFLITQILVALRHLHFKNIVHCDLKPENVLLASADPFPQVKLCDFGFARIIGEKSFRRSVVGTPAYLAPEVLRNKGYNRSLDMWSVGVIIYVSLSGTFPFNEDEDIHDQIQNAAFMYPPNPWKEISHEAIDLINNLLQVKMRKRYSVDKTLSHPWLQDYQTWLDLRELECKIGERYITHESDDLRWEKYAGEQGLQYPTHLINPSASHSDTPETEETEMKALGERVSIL

[4] = molecular target: PIK3CA (human), P42336 [C420R]
PAK2 (human) = PAK2 (human) (UniProt Q13177)
[5] = molecular target: TYK2 JH2 pseudokinase (human) (UniProt P29597)
ABL1 (human) = ABL1 (human) (UniProt P00519)
MAP4K4 (human) = MAP4K4 (human) (UniProt O95819)
EPHA8 (human) = EPHA8 (human) (UniProt P29322)
NEK5 (human) = NEK5 (human) (UniProt Q6P3R8)
Sequence of NEK5 (human) (Q6P3R8 whole entry, looked up): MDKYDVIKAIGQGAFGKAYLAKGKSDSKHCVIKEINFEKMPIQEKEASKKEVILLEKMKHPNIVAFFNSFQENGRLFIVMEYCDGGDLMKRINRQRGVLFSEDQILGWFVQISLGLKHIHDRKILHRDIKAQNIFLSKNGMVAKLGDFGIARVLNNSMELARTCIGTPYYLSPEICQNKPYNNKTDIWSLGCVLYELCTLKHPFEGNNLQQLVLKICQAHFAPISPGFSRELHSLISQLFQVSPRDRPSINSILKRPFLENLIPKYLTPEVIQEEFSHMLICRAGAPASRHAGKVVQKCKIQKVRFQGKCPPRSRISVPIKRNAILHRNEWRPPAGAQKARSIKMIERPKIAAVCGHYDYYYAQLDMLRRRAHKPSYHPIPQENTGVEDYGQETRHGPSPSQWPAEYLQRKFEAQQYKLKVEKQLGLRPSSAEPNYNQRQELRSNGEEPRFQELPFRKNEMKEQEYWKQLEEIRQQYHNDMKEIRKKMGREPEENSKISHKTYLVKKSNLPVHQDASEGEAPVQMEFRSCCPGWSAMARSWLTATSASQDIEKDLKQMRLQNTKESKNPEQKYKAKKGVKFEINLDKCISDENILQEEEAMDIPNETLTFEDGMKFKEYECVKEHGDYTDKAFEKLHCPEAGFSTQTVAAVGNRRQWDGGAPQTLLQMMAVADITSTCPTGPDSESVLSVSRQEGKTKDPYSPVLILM

TIE1 (human) = TIE1 (human) (UniProt P35590)
FGR (human) = FGR (human) (UniProt P09769)
MAPK9 (human) = MAPK9 (human) (UniProt P45984)
SRMS (human) = SRMS (human) (UniProt Q9H3Y6)
CHUK (human) = CHUK (human) (UniProt O15111)
CIT (human) = CIT (human) (UniProt O14578)
DYRK1A (human) = DYRK1A (human) (UniProt Q13627)
BRAF (human) = BRAF (human) (UniProt P15056)
Sequence of BRAF (human) (P15056 whole entry, looked up): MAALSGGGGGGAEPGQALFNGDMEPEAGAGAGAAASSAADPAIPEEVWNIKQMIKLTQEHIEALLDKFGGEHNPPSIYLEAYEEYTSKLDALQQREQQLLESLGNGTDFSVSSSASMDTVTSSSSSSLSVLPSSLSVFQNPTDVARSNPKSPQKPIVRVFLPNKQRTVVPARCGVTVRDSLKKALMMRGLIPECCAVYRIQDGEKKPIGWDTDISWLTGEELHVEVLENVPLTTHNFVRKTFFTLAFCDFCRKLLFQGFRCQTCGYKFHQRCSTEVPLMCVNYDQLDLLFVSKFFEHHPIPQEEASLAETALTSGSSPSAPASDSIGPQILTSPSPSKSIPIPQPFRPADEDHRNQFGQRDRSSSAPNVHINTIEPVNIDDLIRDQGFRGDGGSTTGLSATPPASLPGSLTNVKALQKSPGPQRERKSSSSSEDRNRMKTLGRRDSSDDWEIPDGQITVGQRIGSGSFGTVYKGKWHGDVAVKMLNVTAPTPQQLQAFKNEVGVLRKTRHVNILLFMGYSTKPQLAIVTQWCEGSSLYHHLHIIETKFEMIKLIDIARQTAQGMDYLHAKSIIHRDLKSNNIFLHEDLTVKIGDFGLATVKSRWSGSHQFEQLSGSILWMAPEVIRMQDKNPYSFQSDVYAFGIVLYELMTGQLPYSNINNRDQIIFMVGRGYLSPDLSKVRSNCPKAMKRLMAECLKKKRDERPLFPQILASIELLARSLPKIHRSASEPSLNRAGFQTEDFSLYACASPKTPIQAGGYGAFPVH

BLK (human) = BLK (human) (UniProt P51451)

Sequence of MAP3K7 (human) (O43318 whole entry, looked up): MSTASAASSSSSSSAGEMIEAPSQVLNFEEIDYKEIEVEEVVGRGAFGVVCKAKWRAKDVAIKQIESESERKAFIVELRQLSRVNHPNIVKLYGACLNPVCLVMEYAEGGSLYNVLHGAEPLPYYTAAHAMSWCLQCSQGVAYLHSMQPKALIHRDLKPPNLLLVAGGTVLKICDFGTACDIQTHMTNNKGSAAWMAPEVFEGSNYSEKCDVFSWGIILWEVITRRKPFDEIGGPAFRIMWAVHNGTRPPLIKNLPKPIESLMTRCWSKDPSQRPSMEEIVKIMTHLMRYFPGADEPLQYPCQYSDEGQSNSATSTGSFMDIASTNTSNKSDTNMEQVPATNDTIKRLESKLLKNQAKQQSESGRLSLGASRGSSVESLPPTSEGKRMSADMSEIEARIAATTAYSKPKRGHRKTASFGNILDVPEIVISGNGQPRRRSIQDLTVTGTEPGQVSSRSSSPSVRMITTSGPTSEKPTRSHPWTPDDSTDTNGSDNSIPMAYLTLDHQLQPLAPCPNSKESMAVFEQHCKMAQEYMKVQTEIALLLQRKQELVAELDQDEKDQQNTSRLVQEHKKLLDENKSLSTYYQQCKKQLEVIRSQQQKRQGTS
Sequence of FGFR1 (human) (P11362 whole entry, looked up): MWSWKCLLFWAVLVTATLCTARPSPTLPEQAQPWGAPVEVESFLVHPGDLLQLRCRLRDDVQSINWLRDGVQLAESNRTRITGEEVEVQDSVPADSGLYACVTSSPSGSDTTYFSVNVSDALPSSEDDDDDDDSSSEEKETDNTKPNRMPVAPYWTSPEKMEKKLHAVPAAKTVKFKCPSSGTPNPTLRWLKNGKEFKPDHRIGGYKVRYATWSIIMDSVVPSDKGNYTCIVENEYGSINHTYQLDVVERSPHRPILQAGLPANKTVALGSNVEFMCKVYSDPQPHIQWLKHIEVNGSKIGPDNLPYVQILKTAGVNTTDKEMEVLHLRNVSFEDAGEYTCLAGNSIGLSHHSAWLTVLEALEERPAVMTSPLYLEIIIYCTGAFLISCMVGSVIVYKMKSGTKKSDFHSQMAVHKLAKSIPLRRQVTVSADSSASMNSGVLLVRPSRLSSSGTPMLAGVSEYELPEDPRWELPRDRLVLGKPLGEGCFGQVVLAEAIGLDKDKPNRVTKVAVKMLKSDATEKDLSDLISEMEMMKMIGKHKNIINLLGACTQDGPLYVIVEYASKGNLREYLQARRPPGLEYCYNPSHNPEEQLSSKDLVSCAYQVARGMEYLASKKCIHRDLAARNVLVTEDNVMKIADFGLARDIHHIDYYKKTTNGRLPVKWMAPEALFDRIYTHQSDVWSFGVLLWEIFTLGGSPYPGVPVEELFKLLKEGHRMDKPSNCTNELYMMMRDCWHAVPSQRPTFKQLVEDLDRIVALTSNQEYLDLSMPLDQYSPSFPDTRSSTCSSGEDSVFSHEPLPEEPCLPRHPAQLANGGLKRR

- Kd (FGFR1 (human)): 840 nM
- Kd (MAP3K7 (human)): 83 nM
- Kd (EPHA6 (human)): 5.5 nM
- Kd (BMP2K (human)): 33 µM
- Kd [1]: 4.4 µM
- Kd (MAPK14 (human)): 38 nM
- Kd (ADCK4 (human)): 26 µM
- Kd (IRAK3 (human)): 1400 nM
- Kd (MAPK12 (human)): 1300 nM
- Kd (RIPK1 (human)): 3.2 µM
- Kd (MAPK11 (human)): 15 nM
- Kd (SIK2 (human)): 24 µM
- Kd (FRK (human)): 9.6 nM
- Kd [2]: 260 nM
- Kd (RPS6KA5 KD1 (human)): 13 µM
- Kd (CSNK1D (human)): 13 µM
- Kd (RIPK4 (human)): 16 µM
- Kd (CSNK1G1 (human)): 36 µM
- Kd (TXK (human)): 190 nM
- Kd (PRKCD (human)): 1200 nM
- Kd [3]: 67 nM
- Kd (CDK17 (human)): 630 nM
- Kd (RPS6KA6 KD2 (human)): 6.4 µM
- Kd (PRKD1 (human)): 7.3 µM
- Kd [4]: 30 µM
- Kd (PAK2 (human)): 34 µM
- Kd [5]: 16 µM
- Kd (ABL1 (human)): 2.8 nM
- Kd (MAP4K4 (human)): 56 nM
- Kd (EPHA8 (human)): 14 nM
- Kd (NEK5 (human)): 28 µM
- Kd (TIE1 (human)): 24 nM
- Kd (FGR (human)): 110 nM
- Kd (MAPK9 (human)): 4.1 nM
- Kd (SRMS (human)): 3000 nM
- Kd (CHUK (human)): 170 nM
- Kd (CIT (human)): 210 nM
- Kd (DYRK1A (human)): 35 µM
- Kd (BRAF (human)): 36 nM
- Kd (BLK (human)): 7.6 nM
SMILES: COc1cc2ncnc(Oc3cccc(NC(=O)Nc4cc(C(C)(C)C(F)(F)F)on4)c3)c2cc1OC
